Key:
human subjects = test: human subject study of camphor added to pouches of smokeless tobacco; type: in vivo
Excerpt: Nicotine, for example, is an agonist of the nicotinic acetylcholine receptors, and can produce the sensory irritation, such as burning or stinging, in the mouth or throat, as well as the gastrointestinal discomfort sometimes associated with smokeless tobacco products.

sensory nerve fibers = details: isolated mouse trachea model; Kichco et al. 2007; cited from earlier work
TRPV1 sensory channel = TRPV1 sensory channel (Homo sapiens, UniProt Q8NER1); test: TRPV1 activation in human tissue culture cells expressing the TRPV1 sensory channel; type: cell-based; details: activator capsaicin or camphor applied co-incident with curcumin or 5 minutes after curcumin
Description: It will be further understood by those skilled in the art that active ingredients appropriate for use in the present smokeless tobacco product may function as antagonists to one or more receptors and/or channels and agonists to one or more receptors and/or channels. Compounds known to activate the TRPV1 channel were applied to human tissue culture cells expressing the TRPV1 sensory channel either co-incident with the application of curcumin or following the application of curcumin by 5 minutes. Camphor and capsaicin are both known activators of the TRPV1 channel. However, these two compounds activate the sensory channel by different mechanisms. Curcumin, on the other hand, is a potent antagonist of the TPRV1 sensory channel. When capasaicin or camphor were added to cells expressing the TRPV1 sensory channel with curcumin, TRPV1 sensory activation was inhibited.

Chain of TRPV1 sensory channel (Q8NER1 whole entry): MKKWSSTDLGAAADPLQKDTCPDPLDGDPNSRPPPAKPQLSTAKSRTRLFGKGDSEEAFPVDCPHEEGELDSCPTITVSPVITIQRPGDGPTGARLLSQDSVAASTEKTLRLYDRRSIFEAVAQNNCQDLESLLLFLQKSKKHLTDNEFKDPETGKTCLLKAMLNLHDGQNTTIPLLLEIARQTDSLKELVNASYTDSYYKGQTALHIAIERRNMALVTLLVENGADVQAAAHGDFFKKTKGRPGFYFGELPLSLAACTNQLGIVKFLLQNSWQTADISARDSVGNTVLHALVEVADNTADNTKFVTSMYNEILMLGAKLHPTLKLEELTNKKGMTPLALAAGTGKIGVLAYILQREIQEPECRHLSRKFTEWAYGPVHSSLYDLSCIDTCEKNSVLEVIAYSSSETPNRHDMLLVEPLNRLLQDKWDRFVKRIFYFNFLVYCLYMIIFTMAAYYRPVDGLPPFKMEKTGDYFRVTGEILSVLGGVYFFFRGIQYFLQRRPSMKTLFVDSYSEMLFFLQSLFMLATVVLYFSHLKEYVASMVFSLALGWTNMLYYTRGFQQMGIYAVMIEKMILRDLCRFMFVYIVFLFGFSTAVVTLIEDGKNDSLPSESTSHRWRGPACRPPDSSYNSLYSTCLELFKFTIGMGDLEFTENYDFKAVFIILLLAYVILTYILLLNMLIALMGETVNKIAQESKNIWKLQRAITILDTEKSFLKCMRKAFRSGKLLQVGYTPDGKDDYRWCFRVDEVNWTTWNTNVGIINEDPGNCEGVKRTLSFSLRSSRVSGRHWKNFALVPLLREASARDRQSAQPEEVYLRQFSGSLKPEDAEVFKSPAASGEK

Compound: CC12CCC(CC1=O)C2(C)C (stereo not drawn) [camphor]
- sensation of burning at the pouch location and along the path of saliva that had been in contact with the pouch (human subjects): reduced the sensation of burning
- activation of sensory nerve fibers induced by nicotine (sensory nerve fibers): effectively inhibit

Compound: COc1cc(/C=C/C(=O)CC(=O)/C=C/c2ccc(O)c(OC)c2)ccc1O [curcumin]
- TRPV1 sensory activation (TRPV1 sensory channel): inhibited
